Two compounds from ChEMBL document CHEMBL1142729 (J Med Chem, 2005) can be followed below.

One assay addresses Carbonic anhydrase 2 (Homo sapiens, UniProt P00918). In words: Inhibitory constant value for Carbonic anhydrase II in human determined in pH-shift assay.
Assay [1] is described as follows: Inhibition concentration for carbonic anhydrase I and carbonic anhydrase II in rat determined in CO2 hydration assay.

What is called IC50 is the concentration that inhibits the measured activity by half. For the compound `NS(=O)(=O)OCC1Oc2ccccc2O1`, the IC50 on Carbonic anhydrase 2 came to 0.28 µM.

For `CC1(C)O[C@@H]2[C@@H](CO[C@@]3(COS(N)(=O)=O)OC(C)(C)O[C@@H]23)O1` [TOPIRAMATE], it took 8.9 µM to reach half-maximal inhibition in assay [1] (IC50).
